Reference: US11548870B2, “Compounds useful as inhibitors of helios protein” (Bristol-Myers Squibb Company, priority 2019, dated 2023)

How the values were obtained:
Helios = biological target: T1, Helios (Homo sapiens, UniProt Q96SW2+Q9UKS7); assay: Helios Cellular Degradation Assay (flow cytometry, Helios-PE antibody staining, 72 h); assay type: cell-based; details: Jurkat cells, 72 h incubation, flow cytometry; for Dmax: Jurkat, read-out: Helios Dmax
T1 construct: fluorescently labelled antibodies against Helios and Ikaros; endogenous in cells; host or cells: Jurkat cells
T1 sequence (Q9UKS7 whole entry): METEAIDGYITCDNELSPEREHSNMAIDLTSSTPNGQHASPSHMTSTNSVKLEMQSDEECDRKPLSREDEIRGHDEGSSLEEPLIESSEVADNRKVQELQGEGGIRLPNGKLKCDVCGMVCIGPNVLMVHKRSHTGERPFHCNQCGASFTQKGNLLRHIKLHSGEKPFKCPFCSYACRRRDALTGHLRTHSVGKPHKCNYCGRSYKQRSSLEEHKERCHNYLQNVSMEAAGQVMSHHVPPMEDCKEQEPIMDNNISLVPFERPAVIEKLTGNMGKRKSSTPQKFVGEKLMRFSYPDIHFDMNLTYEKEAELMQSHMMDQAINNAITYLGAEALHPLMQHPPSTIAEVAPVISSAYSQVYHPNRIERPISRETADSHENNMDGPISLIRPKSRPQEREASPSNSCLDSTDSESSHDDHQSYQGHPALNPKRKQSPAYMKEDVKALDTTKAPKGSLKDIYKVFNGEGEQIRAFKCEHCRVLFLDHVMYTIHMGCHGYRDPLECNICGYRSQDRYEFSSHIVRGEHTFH
T1 sequence (Q96SW2 whole entry): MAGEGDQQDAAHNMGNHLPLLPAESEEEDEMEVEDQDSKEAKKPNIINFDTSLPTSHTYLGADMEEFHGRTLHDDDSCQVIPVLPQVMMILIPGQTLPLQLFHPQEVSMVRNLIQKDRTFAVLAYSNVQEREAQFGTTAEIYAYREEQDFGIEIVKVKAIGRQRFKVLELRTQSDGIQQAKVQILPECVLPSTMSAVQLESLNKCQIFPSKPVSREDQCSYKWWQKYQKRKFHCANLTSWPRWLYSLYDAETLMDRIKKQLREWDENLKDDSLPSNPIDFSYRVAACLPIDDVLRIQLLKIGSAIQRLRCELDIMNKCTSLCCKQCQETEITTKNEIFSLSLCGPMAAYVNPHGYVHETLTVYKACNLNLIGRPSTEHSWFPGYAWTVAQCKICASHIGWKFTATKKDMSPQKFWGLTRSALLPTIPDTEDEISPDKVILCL
T1 sequence (Q16531 whole entry partner): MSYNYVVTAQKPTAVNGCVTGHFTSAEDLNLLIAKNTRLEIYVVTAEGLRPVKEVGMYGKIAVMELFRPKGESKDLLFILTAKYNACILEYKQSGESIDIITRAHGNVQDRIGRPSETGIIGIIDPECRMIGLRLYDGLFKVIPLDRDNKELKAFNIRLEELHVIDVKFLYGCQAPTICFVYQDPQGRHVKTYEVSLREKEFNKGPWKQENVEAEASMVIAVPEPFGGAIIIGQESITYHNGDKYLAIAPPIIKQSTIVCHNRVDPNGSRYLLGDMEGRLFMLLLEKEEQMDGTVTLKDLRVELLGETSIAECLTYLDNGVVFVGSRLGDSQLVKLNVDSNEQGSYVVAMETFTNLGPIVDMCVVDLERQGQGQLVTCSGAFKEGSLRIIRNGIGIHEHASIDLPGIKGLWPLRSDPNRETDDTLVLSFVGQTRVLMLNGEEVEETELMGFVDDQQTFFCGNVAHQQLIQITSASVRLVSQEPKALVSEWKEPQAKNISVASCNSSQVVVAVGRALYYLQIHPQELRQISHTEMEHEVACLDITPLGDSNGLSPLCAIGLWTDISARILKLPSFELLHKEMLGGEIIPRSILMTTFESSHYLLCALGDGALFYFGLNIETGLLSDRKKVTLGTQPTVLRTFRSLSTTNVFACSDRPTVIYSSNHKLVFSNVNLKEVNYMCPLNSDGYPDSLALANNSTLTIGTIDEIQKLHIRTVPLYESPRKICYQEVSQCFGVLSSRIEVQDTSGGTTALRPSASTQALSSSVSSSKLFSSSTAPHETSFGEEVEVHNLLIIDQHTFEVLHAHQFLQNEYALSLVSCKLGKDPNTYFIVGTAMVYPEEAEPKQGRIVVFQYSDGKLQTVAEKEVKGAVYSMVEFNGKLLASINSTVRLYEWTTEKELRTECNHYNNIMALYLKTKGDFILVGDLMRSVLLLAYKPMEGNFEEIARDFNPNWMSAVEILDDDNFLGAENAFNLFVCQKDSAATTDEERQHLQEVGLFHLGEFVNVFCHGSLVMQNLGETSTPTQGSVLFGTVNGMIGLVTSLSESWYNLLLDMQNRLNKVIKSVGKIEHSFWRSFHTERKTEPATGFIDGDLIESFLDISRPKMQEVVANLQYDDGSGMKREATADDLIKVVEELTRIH
Description: (§1) Helios Cellular Degradation Assay
(§2) Jurkat cells were plated at 80,000 cells/well in 40 μL RPMI+10% FBS in a 384 well cell culture plate prior to using acoustic dispensing technology for adding compound of interest. Cell cultures were incubated for 72 h at 37° C. and 5% CO2. In order to facilitate analysis, cell cultures were spun down at 200 rpm for 5 min and the supernatant was discarded. After shaking the plate to dislodge the cell pellet, cells were resuspended in 50 μL of Fixation Buffer (eBioScience FoxP3 buffer set 0000) for 60 min at room temperature. After centrifuging and discarding the supernatant, cells were permeabilized with 50 μL of Permeabilization buffer (eBioScience FoxP3 buffer set 00-5523-00) for 10 min at room temperature. Following permeabilization, cells were spun down and the supernatant was replaced with 20 μL fluorescently labelled antibodies against Helios and Ikaros or corresponding Isotype controls in 1× Permeabilization buffer (Ikaros-Alexa488 [Biolegend, Cat #368408, 1:50], Helios-PE [CST, Cat #29360, 1:50]) and staining reactions were incubated for 1 h at room temperature; protected from light. Subsequently, 30 μL of 1× Permeabilization buffer was added prior to centrifuging the cells and discarding the supernatant. Stained cells were resuspended in 25 μL of flow cytometry staining buffer (PBS+0.2% BSA) and analyzed using an Intellicyt Ique Plus flow cytometer.
as §2, with “00-5523-00)” for “0000)”

Ikaros = biological target: T2, Ikaros (Homo sapiens, UniProt Q13422); assay: Helios Cellular Degradation Assay, Ikaros readout (flow cytometry, Ikaros-Alexa488 antibody staining, 72 h); assay type: cell-based; details: Jurkat cells, 72 h incubation, flow cytometry; for Dmax: Jurkat, read-out: Ikaros Dmax
T2 construct: fluorescently labelled antibodies against Helios and Ikaros; endogenous in cells; host or cells: Jurkat cells
T2 sequence (Q96SW2 whole entry partner): as the sequence (Q96SW2 whole entry) above
T2 sequence (Q16531 whole entry partner): as the sequence (Q16531 whole entry partner) above
T2 sequence (Q13422 whole entry): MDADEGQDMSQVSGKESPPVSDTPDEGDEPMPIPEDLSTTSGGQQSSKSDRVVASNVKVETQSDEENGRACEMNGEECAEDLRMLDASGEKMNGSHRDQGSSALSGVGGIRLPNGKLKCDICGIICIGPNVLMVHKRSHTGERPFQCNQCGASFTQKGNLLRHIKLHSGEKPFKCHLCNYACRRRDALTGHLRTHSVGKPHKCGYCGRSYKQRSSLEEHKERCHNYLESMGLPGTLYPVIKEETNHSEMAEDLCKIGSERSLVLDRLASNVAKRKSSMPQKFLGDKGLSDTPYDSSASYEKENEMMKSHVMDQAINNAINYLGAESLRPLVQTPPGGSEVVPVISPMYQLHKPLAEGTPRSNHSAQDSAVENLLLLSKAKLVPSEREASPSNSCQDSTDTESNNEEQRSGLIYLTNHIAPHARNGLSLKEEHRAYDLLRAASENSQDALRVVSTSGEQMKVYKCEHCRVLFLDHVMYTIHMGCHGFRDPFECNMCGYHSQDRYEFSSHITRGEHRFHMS
Description: as §1, §2
as §2, with “00-5523-00)” for “0000)”

SMILES	DC50 (Helios)	Dmax (Helios)	DC50 (Ikaros)	Dmax (Ikaros)	Helios Dmax (Helios)	Ikaros Dmax (Ikaros)
O=C1CCC(N2Cc3cc(-c4cc(CN5CCC(C(c6ccccc6)c6ccccc6)CC5)ccn4)ccc3C2=O)C(=O)N1 (centres unmarked) [Example 42, 3-(5-(4-((4-benzhydrylpiperidin-1-yl)methyl)pyridin-2-yl)-1-oxoisoindolin-2-yl)piperidine-2,6-dione]	> 10 µM	3%	> 10 µM	7%	–	–
CN1CCCN(Cc2ccnc(-c3ccc4c(c3)CN(C3CCC(=O)NC3=O)C4=O)c2)CC1 (centres unmarked) [Example 43, 3-(5-(4-((4-methyl-1,4-diazepan-1-yl)methyl)pyridin-2-yl)-1-oxoisoindolin-2-yl) piperidine-2,6-dione]	> 10 µM	10%	> 10 µM	3%	–	–
CC(C)N1CCN(Cc2ccnc(-c3ccc4c(c3)CN(C3CCC(=O)NC3=O)C4=O)c2)CC1 (centres unmarked) [Example 44, 3-(5-(4-((4-isopropylpiperazin-1-yl)methyl)pyridin-2-yl)-1-oxoisoindolin-2-yl)piperidine-2,6-dione]	> 10 µM	36%	> 10 µM	12%	–	–
CN(C)[C@@H]1CCN(Cc2ccnc(-c3ccc4c(c3)CN(C3CCC(=O)NC3=O)C4=O)c2)C1 (stereo partly drawn) [Example 45, 3-(5-(4-(((R)-3-(dimethylamino)pyrrolidin-1-yl)methyl)pyridin-2-yl)-1-oxoisoindolin-2-yl)piperidine-2,6-dione]	> 10 µM	43%	> 10 µM	6%	–	–
CC1CCN1Cc1ccnc(-c2ccc3c(c2)CN(C2CCC(=O)NC2=O)C3=O)c1 (centres unmarked) [Example 46, 3-(5-(4-((2-methylazetidin-1-yl)methyl)pyridin-2-yl)-1-oxoisoindolin-2-yl)piperidine-2,6-dione]	0.018 µM	83%	> 10 µM	6%	–	–
CC1CN(Cc2ccnc(-c3ccc4c(c3)CN(C3CCC(=O)NC3=O)C4=O)c2)C1 (centres unmarked) [Example 47, 3-(5-(4-((3-methylazetidin-1-yl)methyl)pyridin-2-yl)-1-oxoisoindolin-2-yl)piperidine-2,6-dione]	0.017 µM	79%	> 10 µM	8%	–	–
O=C1CCC(N2Cc3cc(-c4cc(CN5CCCCCC5)ccn4)ccc3C2=O)C(=O)N1 (centres unmarked) [Example 48, 3-(5-(4-(azepan-1-ylmethyl)pyridin-2-yl)-1-oxoisoindolin-2-yl)piperidine-2,6-dione]	0.032 µM	72%	> 10 µM	6%	–	–
CN1CCC(N(C)Cc2ccnc(-c3ccc4c(c3)CN(C3CCC(=O)NC3=O)C4=O)c2)C1 (centres unmarked) [Example 49, 3-(5-(4-((methyl(1-methylpyrrolidin-3-yl)amino)methyl)pyridin-2-yl)-1-oxoisoindolin-2-yl)piperidine-2,6-dione]	> 10 µM	–	> 10 µM	–	29%	3%
CCN(CC)Cc1ccnc(-c2ccc3c(c2)CN(C2CCC(=O)NC2=O)C3=O)c1 (centres unmarked) [Example 50, 3-(5-(4-((diethylamino)methyl)pyridin-2-yl)-1-oxoisoindolin-2-yl)piperidine-2,6-dione]	0.022 µM	78%	> 10 µM	12%	–	–
CC1(C)CN(Cc2ccnc(-c3ccc4c(c3)CN(C3CCC(=O)NC3=O)C4=O)c2)C1 (centres unmarked) [Example 51, 3-(5-(4-((3,3-dimethylazetidin-1-yl)methyl)pyridin-2-yl)-1-oxoisoindolin-2-yl)piperidine-2,6-dione]	0.064 µM	70%	> 10 µM	11%	–	–
CC1(C)CCN1Cc1ccnc(-c2ccc3c(c2)CN(C2CCC(=O)NC2=O)C3=O)c1 (centres unmarked) [Example 52, 3-(5-(4-((2,2-dimethylazetidin-1-yl)methyl)pyridin-2-yl)-1-oxoisoindolin-2-yl)piperidine-2,6-dione]	0.3 µM	67%	> 10 µM	10%	–	–
CC1CCCC(C)N1Cc1ccnc(-c2ccc3c(c2)CN(C2CCC(=O)NC2=O)C3=O)c1 (centres unmarked) [Example 53, 3-(5-(4-((2,6-dimethylpiperidin-1-yl)methyl)pyridin-2-yl)-1-oxoisoindolin-2-yl)piperidine-2,6-dione]	0.231 µM	77%	> 10 µM	21%	–	–
O=C1CCC(N2Cc3cc(-c4cc(CNCC5CCCCC5)ccn4)ccc3C2=O)C(=O)N1 (centres unmarked) [Example 54, 3-(5-(4-(((cyclohexylmethyl)amino)methyl)pyridin-2-yl)-1-oxoisoindolin-2-yl)piperidine-2,6-dione]	0.016 µM	83%	> 10 µM	12%	–	–
CC(NCc1ccnc(-c2ccc3c(c2)CN(C2CCC(=O)NC2=O)C3=O)c1)c1ccccc1 (centres unmarked) [Example 55, 3-(1-oxo-5-(4-(((1-phenylethyl)amino)methyl)pyridin-2-yl)isoindolin-2-yl) piperidine-2,6-dione]	0.009 µM	91%	> 10 µM	10%	–	–
Cc1ccccc1CNCc1ccnc(-c2ccc3c(c2)CN(C2CCC(=O)NC2=O)C3=O)c1 (centres unmarked) [Example 56, 3-(5-(4-(((2-methylbenzyl)amino)methyl)pyridin-2-yl)-1-oxoisoindolin-2-yl)piperidine-2,6-dione]	0.013 µM	88%	> 10 µM	18%	–	–
Cc1cccc(CNCc2ccnc(-c3ccc4c(c3)CN(C3CCC(=O)NC3=O)C4=O)c2)c1 (centres unmarked) [Example 57, 3-(5-(4-(((3-methylbenzyl)amino)methyl)pyridin-2-yl)-1-oxoisoindolin-2-yl)piperidine-2,6-dione]	> 10 µM	32%	> 10 µM	0%	–	–
Cc1ccc(CNCc2ccnc(-c3ccc4c(c3)CN(C3CCC(=O)NC3=O)C4=O)c2)cc1 (centres unmarked) [Example 58, 3-(5-(4-(((4-methylbenzyl)amino)methyl)pyridin-2-yl)-1-oxoisoindolin-2-yl)piperidine-2,6-dione]	0.009 µM	88%	> 10 µM	22%	–	–
CN(Cc1ccnc(-c2ccc3c(c2)CN(C2CCC(=O)NC2=O)C3=O)c1)CC1CCCCC1 (centres unmarked) [Example 59, 3-(5-(4-(((cyclohexylmethyl)(methyl)amino)methyl)pyridin-2-yl)-1-oxoisoindolin-2-yl) piperidine-2,6-dione]	0.082 µM	79%	> 10 µM	20%	–	–
O=C1CCC(N2Cc3cc(-c4cc(CN5CCC6CCCC65)ccn4)ccc3C2=O)C(=O)N1 (centres unmarked) [Example 60, 3-(5-(4-((hexahydrocyclopenta[b]pyrrol-1(2H)-yl)methyl)pyridin-2-yl)-1-oxoisoindolin-2-yl) piperidine-2,6-dione]	0.548 µM	63%	> 10 µM	19%	–	–
CCCCNCc1ccnc(-c2ccc3c(c2)CN(C2CCC(=O)NC2=O)C3=O)c1 (centres unmarked) [Example 61, 3-(5-(4-((butylamino)methyl)pyridin-2-yl)-1-oxoisoindolin-2-yl)piperidine-2,6-dione]	0.012 µM	83%	> 10 µM	5%	–	–
CCCNCc1ccnc(-c2ccc3c(c2)CN(C2CCC(=O)NC2=O)C3=O)c1 (centres unmarked) [Example 62, 3-(1-oxo-5-(4-((propylamino)methyl)pyridin-2-yl)isoindolin-2-yl)piperidine-2,6-dione]	0.045 µM	80%	> 10 µM	5%	–	–
O=C1CCC(N2Cc3cc(-c4cc(CNCCc5ccccc5)ccn4)ccc3C2=O)C(=O)N1 (centres unmarked) [Example 63, 3-(1-oxo-5-(4-((phenethylamino)methyl)pyridin-2-yl)isoindolin-2-yl)piperidine-2,6-dione]	0.014 µM	80%	> 10 µM	13%	–	–
O=C1CCC(N2Cc3cc(-c4cc(CNCC5CC5)ccn4)ccc3C2=O)C(=O)N1 (centres unmarked) [Example 64, 3-(5-(4-(((cyclopropylmethyl)amino)methyl)pyridin-2-yl)-1-oxoisoindolin-2-yl)piperidine-2,6-dione]	0.036 µM	73%	> 10 µM	1%	–	–
